In US10357556B2, “Methods and compositions for T cell generation and uses thereof” (priority 2016, dated 2019):

What was measured:
[1] = system: CD4+Foxp3+ regulatory T cells (Tregs); assay: In vitro DC-T cell co-culture: pulsed BMDCs co-cultured with CD4+ T cells; assay type: cell-based, mouse
Description: Co-culture of bone marrow-derived dendritic cells (BMDCs) and CD4^+ T cells were performed as previously described (30, 32, 36). Briefly, BMDCs were generated from bone marrow progenitor cells isolated from femurs of WT or Atg16L1^ΔCD11c mice in the presence of 20 ng/ml GM-CSF (Miltenyi) in complete RPMI media 1640 (10% fetal bovine serum, 50 U/ml penicillin, 50 μg/ml streptomycin, 2 mM L-glutamine, 1 mM sodium pyruvate, 1 mM HEPES, and non-essential amino acids, and β-mercaptoethanol). BMDCs were pulsed with PBS, WT-OMVs (10 μg/ml), ΔPSA-OMVs (10 μg/ml) or pure PSA (50 μg/ml) for 18-22 hrs; OMVs with a protein content of 10 μg contain 50 μg of PSA. […]
(§1) Cells were incubated in 5% mouse serum for 15 min and stained for 20 min at 4° C. with either LIVE/DEAD fixable green or far red dead stain kit (Life Technologies), with empirically titrated concentrations of the following antibodies: PerCP-Cy5.5-conjugated anti-mouse CD4 (clone: RM4-5), PerCP-Cy5.5-conjugated anti-human CD4 (clone: OKT4), and/or PE-Cy7-conjugated anti-mouse CD4 (clone: RM4-5). […] Cell acquisition was performed on a BD FACS Calibur (BD Biosciences) or Miltenyi MACSQuant (Miltenyi), and data was analyzed using FlowJo software suite (TreeStar). For ELISAs, cell supernatant from in vitro DC-T cell co-culture were collected and mouse IL-10 and IL-17A were measured using commercially available kits (eBiosciences).

[2] = system: CD4+CD25- responder effector T cells (Teff); assay: In vitro T cell suppression assay; assay type: cell-based, mouse; details: Tregs from co-cultures with Atg16L1ΔCD11c BMDCs
Description: CD4^+CD25^+ Treg cells were purified from in vitro BMDC-T cell co-cultures using magnetic microbeads (Miltenyi). CD4^+CD25^− responder effector T cells (Teff) were isolated from mouse spleens, labeled with 2.5 μM CFSE for 10 min at 37° C. in the dark, washed, and incubated with Treg cells at various Treg:Teff ratios in the presence of 1 μg/ml anti-mouse CD3 (eBiosciences). Irradiated CD4-depleted mouse splenocytes served as antigen-presenting cells. Cultures were incubated for 48 and 72 hrs, cells were stained with specific antibodies and a viability dye, and analyzed by flow cytometry. Dilution of CFSE signal is a measure of proliferation, and inhibition of proliferation a measure of Treg activity.

[3] = system: LC3-associated phagocytosis (LAP); assay: LC3-GFP accumulation in BMDCs (LAP activation); assay type: cell-based, mouse; details: Rubicon+/- BMDCs
Description: Quantification of LC3-GFP accumulation upon 2 h treatment of BMDCs with PBS, B. fragilis WT-OMV, ΔPSA-OMV or purified PSA in Rubicon^+/− or Rubicon^−/− DCs. Error bars represent S.E.M. **** p<0.0001. Data are representative of 3 independent experiments.

CD4+Foxp3+ Tregs = assay: Human MoDC - syngeneic CD4+ T cell co-culture; assay type: cell-based; details: cells from most subjects, regardless of genotype
Description: To generate monocyte-derived dendritic cell (MoDCs), human PBMCs were isolated from fresh whole blood the same day of harvest using Ficoll-Hypaque (GE Healthcare) gradient (density=1.070 g/ml), followed by monocyte enrichment using the Human Monocyte Isolation Kit II (Miltenyi). For differentiation into MoDCs, monocytes were incubated with recombinant human IL-4 and GM-CSF (Peprotech) every two days in complete RPMI 1640 (5% human AB serum, 50 U/ml penicillin, 50 μg/ml streptomycin, 2 mM L-glutamine, 1 mM sodium pyruvate, 1 mM HEPES, non-essential amino acids, […]). […]
as §1

Polysaccharide A [PSA] was tested, and the IL-10 production ([1]; ATG16L1-deficient (Atg16L1ΔCD11c) DCs) was “does not require ATG16L1 for its activity”, the “IL-10 production among CD4+Foxp3- type 1 regulatory T cells” value ([1]; WT or Atg16L1ΔCD11c DCs) was “Neither WT-OMVs nor pure PSA have any effect” and the Treg suppressive activity [2] was “does not require ATG16L1 to promote suppressive Treg activity”. The “Accumulation of membrane-bound LC3-GFP (LC3-II) / LAP activation” value [3] was “neither APSA-OMVs nor purified PSA are able to activate LAP” and the “Response (IL-10 among CD4+Foxp3+ Tregs)” value (CD4+Foxp3+ Tregs) was “respond to purified PSA”.
